From US6512000B1, “Aminocarbonyl-substituted benzimidazoles having tryptase-inhibitory activity” (Boehringer Ingelheim Pharma KG, priority 1999, dated 2003)
Where a name gives a salt, the structure may show the parent alone.

Molecular target: T1, rh beta tryptase (Homo sapiens, UniProt P20231)
T1 construct: purchased Promega
Assay: Tryptase inhibition test (cleavage of N-p-tosyl-Gly-Pro-Lys-para-nitroaniline, p-nitroaniline measured at 405 nm)
Assay type: biochemical
Conditions: concentration at which 50% of the tryptase enzyme activity is inhibited; substrate 0.6 mM, pH 7.4, 37° C.
Method in brief: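 Recombinant human beta tryptase (0.91 U/ml) in 100 mM Tris HCl pH 7.4 with 5 mM calcium and 100 mg/ml heparin; compounds pre-incubated 5 min, then 0.6 mM tosyl-Gly-Pro-Lys-pNA added, 5 min at 37 °C. p-Nitroaniline read at 405 nm; % inhibition at 10 μM, IC50 determined when inhibition exceeded 70%.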

T1 sequence (P20231 31-275): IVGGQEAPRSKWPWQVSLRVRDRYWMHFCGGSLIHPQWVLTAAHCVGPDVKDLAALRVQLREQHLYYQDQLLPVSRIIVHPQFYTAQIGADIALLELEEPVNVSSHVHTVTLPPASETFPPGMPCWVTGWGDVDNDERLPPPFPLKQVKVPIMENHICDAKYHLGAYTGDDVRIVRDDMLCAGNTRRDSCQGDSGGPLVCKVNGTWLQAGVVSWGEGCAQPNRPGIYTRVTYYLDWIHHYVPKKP

Row | IC50 | Compound
1 | 153 nM | Cl.Cl.Cn1c(CCc2ccc(C(=N)N)cc2)nc2cc(C(=O)N(CCN(Cc3ccccc3)Cc3ccccc3)C3CCCCC3)ccc21 [Example 2, 2-[2-(4-Amidinophenyl)ethyl]-1-methyl-benzimidazol-5-yl-carboxylic Acid-N-[2-(N,N-dibenzylamino)ethyl]-N-cyclohexyl-amide-dihydrochloride]

Tested on: not given
Assay: not given
Conditions: not given

Row | Compound | melting point
2 | CN(Cc1ccc(C(=N)N)cc1)C(=O)c1ccc2c(c1)nc(CCc1ccc(C(=N)N)cc1)n2C (as salt: hydrochloride) [Example 4, 2-[2-(4-Amidinophenyl)-ethyl]-1-methyl-benzimidazol-5-yl-carboxylic Acid-N-(4-amidino-benzyl)-N-methyl-amide-trihydrochloride] | > 220 °C
3 | Cn1c(CCc2ccc(C(=N)N)cc2)nc2cc(C(=O)NCCC(c3ccccc3)c3ccccc3)ccc21 (as salt: hydrochloride) | 185 °C
4 | CC(C)CN(CCC(=N)N)C(=O)c1ccc2c(c1)nc(CCc1ccc(C(=N)N)cc1)n2C (as salt: hydrochloride) [Example 11, 2-[2-(4-Amidinophenyl)-ethyl]-1-methyl-benzimidazol-5-yl-carboxylic Acid-N-(2-amidinoethyl)-N-iso-butyl-amide-dihydrochloride] | 204 to 210 °C
5 | Cn1c(CCc2ccc(C(=N)N)cc2)nc2cc(C(=O)N(CCC(=N)N)Cc3ccccc3)ccc21 (as salt: hydrochloride) [Example 9, 2-[2-(4-Amidinophenyl)-ethyl]-1-methyl-benzimidazol-5-yl-carboxylic Acid-N-(2-amidinoethyl)-N-benzyl-amide-dihydrochloride] | > 220 °C
6 | Cn1c(CCc2ccc(C(=N)N)cc2)nc2cc(C(=O)N(CCC(=N)N)C3CCCCCCC3)ccc21 (as salt: hydrochloride) [Example 25, 2-[2-(4-Amidinophenyl)-ethyl]-1-methyl-benzimidazol-5-yl-carboxylic Acid-N-(2-amidinoethyl)-N-cyclooctyl-amide-dihydrochloride] | 200 to 210 °C
7 | Cn1c(CCc2ccc(C(=N)N)cc2)nc2cc(C(=O)N(CCC(=N)N)Cc3cccnc3)ccc21 (as salt: hydrochloride) [Example 10, 2-[2-(4-Amidinophenyl)-ethyl]-1-methyl-benzimidazol-5-yl-carboxylic Acid-N-(2-amidinoethyl)-N-(3-pyridylmethyl)-amide-dihydrochloride] | 225 to 228 °C
8 | CN(C(=O)c1ccc2c(c1)nc(CCc1ccc(C(=N)N)cc1)n2C)c1cccnc1 (as salt: hydrochloride) [Example 18, 2-[2-(4-Amidinophenyl)-ethyl]-1-methyl-benzimidazol-5-yl-carboxylic Acid-N-methyl-N-(3-pyridyl)-amide-hydrochloride] | > 220 °C
9 | Cl.Cl.Cn1c(CCc2ccc(C(=N)N)cc2)nc2cc(C(=O)N(CCN(Cc3ccccc3)Cc3ccccc3)C3CCCCC3)ccc21 [Example 2, 2-[2-(4-Amidinophenyl)ethyl]-1-methyl-benzimidazol-5-yl-carboxylic Acid-N-[2-(N,N-dibenzylamino)ethyl]-N-cyclohexyl-amide-dihydrochloride] | 140 to 148 °C

More lines, now with the values ahead:

Row | melting point | Compound
10 | 195 to 200 °C | CC(C)N(CCC(=N)N)C(=O)c1ccc2c(c1)nc(CCc1ccc(C(=N)N)cc1)n2C (as salt: hydrochloride) [Example 27, 2-[2-(4-Amidinophenyl)-ethyl]-1-methyl-benzimidazol-5-yl-carboxylic Acid-N-(2-amidinoethyl)-N-iso-propyl-amide-dihydrochloride]
11 | 140 °C | Cn1c(CCc2ccc(CN)cc2)nc2cc(C(=O)N(CCC(c3ccccc3)c3ccccc3)Cc3ccc(CN)cc3)ccc21 (as salt: hydrochloride) [Example 43, 2-[2-(4-Aminomethyl-phenyl)-ethyl]-1-methyl-benzimidazol-5-yl-carboxylic Acid-N-(4-aminomethylbenzyl)-N-(3,3-diphenylpropyl)-amide-dihydrochloride]
12 | 158 °C | CC(=O)NCCCCC(NC(=O)c1ccc2c(c1)nc(CCc1ccc(C(=N)N)cc1)n2C)C(=O)O (stereo not drawn) (as salt: formate) [Example 34]
13 | 140 °C | Cn1c(CCc2ccc(CN)cc2)nc2cc(C(=O)NCCC(c3ccccc3)c3ccccc3)ccc21 (as salt: hydrochloride) [Example 40, 2-[2-(4-Aminomethyl-phenyl)-ethyl]-1-methyl-benzimidazol-5-yl-carboxylic Acid-N-(3,3-diphenylpropyl)-amide-dihydrochloride]
14 | 230 °C | CCOC(=O)C(Cc1ccc(C(=N)N)cc1)N(C)C(=O)c1ccc2c(c1)nc(CCc1ccc(C(=N)N)cc1)n2C (stereo not drawn) (as salt: formate) [Example 29, Ethyl 2-{2-[2-(4-Amidinophenyl)-ethyl]-1-methyl-benzimidazol-5-yl-carbonyl-(methylamino)}-3-(4-amidinophenyl)-propionate-formate]
15 | 222 to 225 °C | Cc1ccc(N(CCC(=N)N)C(=O)c2ccc3c(c2)nc(CCc2ccc(C(=N)N)cc2)n3C)cc1 (as salt: hydrochloride) [Example 26, 2-[2-(4-Amidinophenyl)-ethyl]-1-methyl-benzimidazol-5-yl-carboxylic Acid-N-(2-amidinoethyl)-N-(4-methyl-phenyl)-amide-dihydrochloride]
